# Key:
# [1] = tested on: basal cell carcinoma (BCC) lesions and surrounding normal skin; test: PpIX fluorescence in human BCC and surrounding normal skin by optical-fiber based system; type: in vivo
# Method: The PpIX fluorescence in the BCC lesions and surrounding normal skin of human patients was measured in situ by optical-fiber based system after topical application of 20% free ALA and its derivatives for various time intervals.
# The PpIX fluorescence ratios between BCC lesions and surrounding normal skin after topical application of ALA or its esters (20% for 4 hours), was examined using methods described in previous examples.
# [2] = tested on: normal skin of nu/nu nude mice; test: Protoporphyrin IX production in the skin of mice by CCD microscopy of biopsies; type: in vivo; conditions: 20% w/w cream
# Method: A commercial oil-in-water cream containing (20% w/w) one of the chemicals (free ALA, ALA methylester, ALA ethylester and ALA propylester) (see Example 1) was topically applied to the normal skin of nu/nu nude mice for 0.5, 1, 3 and 6 hours, then biopsied and evaluated by means of microscopic fluorescence photometry incorporating a light-sensitive thermol-electrically cooled charge coupled device (CCD) camera. […] The fluorescence intensity of PpIX in the skin increased with the time of the application and the maximum amounts of the fluorescence were seen about 6 hours (the latest time point studied) after the application in all cases.
# [3] = tested on: normal skin of nude mice; test: In situ measurement of PpIX fluorescence in the skin of mice by an optical-fiber-based system; type: in vivo; conditions: intraperitoneal injection, 150 mg/kg
# [4] = tested on: BCC lesions and surrounding normal skin; test: PpIX production in human BCC and surrounding normal skin by CCD microscopy of biopsies; type: in vivo
# Method: […] After removal of dressings and cream in vivo fluorescence was measured at the surface of tumor tissue and adjacent normal skin by means of a spectrofluorometer. Punch biopsies of the same areas were removed and samples were immediately immersed in liquid nitrogen. The tissue sections were cut with a cryostat microtome to a thickness of 8 μm. The localization pattern of the porphyrin fluorescence in the tissue sections was directly observed by means of fluorescence microscopy. The same frozen sections were subsequently stained with routine H&E staining for histological identification.
# The same sections were subsequently stained with routine H&E staining for histological identification. Fluorescence microscopy was carried out with an Axioplan microscope (Zeiss, Germany). Fluorescence images and quantitative measurements were performed by a light-sensitive thermol-electrically cooled charge coupled device (CCD) camera (Astromed CCD 3200, Cambridge, UK) and an image processing unit (Astromed/Visilog, PC 486DX2 66 MHz VL). The main purpose for such quantitative measurements is to determine the exact penetration of ALA-induced porphyrins from tissue surface to the bottom layers of cancer lesions. The results are shown in FIGS. 8 and 9 in which the fluorescence intensity is expressed as a function of depth of cancer lesion.
# The tests were performed as described in Example 11.
# Each of the following figures show both (A) fluorescence images of either the bottom layer of BCC lesions or of the surrounding normal skin. Curves indicating the fluorescence intensity as a function of depth of the BCC lesions or of the normal skin are also shown (B).
# [5] = tested on: BCC lesions and adjacent normal skin; test: In vivo surface fluorescence of tumor tissue and adjacent normal skin by spectrofluorometer; design: species or system human; conditions: after 24 hours, surface measurement
# Method: In a person presenting multiple ulcero-nodular BCCs lesions were exposed to commercial oil-in-water creams containing either ALA alone (20 k w/w) or ALA methyl ester (20% w/w) (as described in Example 7) covered by a semi-permeable dressing for 24 hours. After removal of dressings and cream in vivo fluorescence was measured at the surface of tumor tissue and adjacent normal skin by means of a spectrofluorometer. Punch biopsies of the same areas were removed and samples were immediately immersed in liquid nitrogen. The tissue sections were cut with a cryostat microtome to a thickness of 8 μm. The localization pattern of the porphyrin fluorescence in the tissue sections was directly observed by means of fluorescence microscopy. The same frozen sections were subsequently stained with routine H&E staining for histological identification.
# [6] = tested on: WiDr human colonic carcinoma; test: PDT effect on tumor growth in WiDr human colonic carcinoma-transplanted nude mice; type: in vivo; conditions: with DF and DMSO
# Method: Nude mice were transplanted with WiDr human colonic carcinoma cells by subcutaneous injection into the right flank region. […] The responses of the treated tumors were evaluated as tumor regression/regrowth time. When the tumors reached a volume 5 times that of the volume on the day of light irradiation, the mice were killed. (Bars: standard error of mean (SEM) based on 3-5 individual animals in each group).
# [7] = tested on: BCC lesions and adjacent normal skin; test: Control one week after treatment (cream and light irradiation) of BCC patient; type: in vivo, human
# [8] = tested on: normal skin of nude mice; test: Fluorescence microscopy of mouse skin biopsies after topical application; type: in vivo; conditions: 1 h after topical application
# Method: Treatment procedure. One of the creams was painted on the normal skin at right flank region of each mouse, and covered by a semi-permeable dressing (3M, St Paul, Minn., USA) for various time intervals (from 0.25 to 24 h) before fluorescence measurements in situ or being biopsied for microscopic fluorescence imaging. About 0.2 g cream was applied to an approximate 2.25 cm^2 area of the skin. In the case of i.p. injection the mice were given ALA or its methylester at a dose of 150 mg/kg. At least three mice were used for each condition.
# Fluorescence microscopy. After the creams were topically applied to the skin of mice for various times (as indicated above), the skin was biopsied and the frozen tissue sections were cut with a cryostat to a thickness of 8 μm. The fluorescence microscopy was carried out using an Axioplan microscope (Zeiss, Germany) with a 100 W mercury lamp. The fluorescence images were recorded by a light-sensitive thermoelectrically cooled charge coupled device (CCD) camera (resolution: 385×578 pixels with a dynamic range of 16 bits per pixel)(Astromed CCD 3200, Cambridge, UK) and hard copies on a video printer (Sony multiscan video printer UP-930). The filter combination used for detection of porphyrin fluorescence consisted of 390-440 nm excitation filter, a 460 nm beam splitter and a >600 nm emission filter.
# II. […] The fluorescence intensity of the porphyrins increased with the time after the application.
# [9] = topical application for 4.5 hours
# [10] = topical application for 24 hours
smiles,measurement,setting,value
"COC(=O)CCC(=O)CN.Cl [ALA methylester, methyl 5-aminolevulinate hydrochloride]",PpIX fluorescence ratios between BCC lesions and surrounding normal skin (selectivity) compared with free ALA,"[1]; 20% for 4 hours, topical",more selectively induce PpIX in BCC lesions than free ALA
same,"PpIX build-up, amount and localization in BCC lesions compared to free ALA","[1]; 20% topical, various time intervals, human patients","built up faster, produced more and localized more selectively in the BCC lesions"
same,time after topical application at which conversion into protoporphyrin IX (PpIX) is seen,[2]; normal skin of nu/nu nude mice,0.5 h
same,time of maximum PpIX fluorescence after application,"[2]; topical, 6 hours was the latest time point studied",about 6 hours
same,decrease of skin fluorescence compared with free ALA,[3],the fluorescence decreased faster in the case of the ester than in the case of the free ALA
same,time at which PpIX fluorescence disappeared post injection,[3],≤ 10 h
same,time at which PpIX fluorescence in the skin was built up after injection,[3],15 min
same,time of peak PpIX fluorescence in the skin after injection,[3],around 4 hours
same,PpIX fluorescence in the surrounding normal skin,"[4]; 20% w/w cream, 24 hours",no PpIX fluorescence was seen in the surrounding normal skin
same,distribution of PpIX fluorescence from top to bottom of BCC lesions,"[4]; 20% w/w cream, 24 hours, patient",homogeneous distribution of PpIX fluorescence
same,distribution of porphyrin fluorescence in the bottom layer of BCC,[4]; [9],homogenous distribution
same,fluorescence intensity ratio between BCC and normal skin,[4]; [9],about 2
same,"porphyrin fluorescence/production in BCC, ALA methyl ester versus free ALA and 20% DMSO",[4]; [9],higher than that induced by free ALA and 20% DMSO
same,distribution of porphyrin fluorescence in the bottom layer of BCC and surrounding normal skin,[4]; [10],uniform distribution
same,fluorescence intensity ratio between BCC and normal skin,[4]; [10],about 2
same,"porphyrin fluorescence/production in BCC, ALA methyl ester versus free ALA alone",[4]; [10],almost twice as high
same,in vivo fluorescence intensity in tumors compared to ALA,[5],at least doubled fluorescence intensity
same,increase of in vivo fluorescence in corresponding normal tissues compared to ALA,[5],about 50%
same,slowing of tumor regrowth compared with ALA,[6],more effective than ALA in slowing tumor regrowth
same,erythema in adjacent normal skin exposed to cream and light irradiation,[7],only moderate erythema
same,tumor response in treatment fields,[7],central necrotic area corresponding to the tumor
same,localization of porphyrin fluorescence in mouse skin,[8],"fluorescence in the epidermis (Ep), epithelial hair follicles and sebaceous gland (arrows), but not in the dermis (De)"
